Experimental data from ChEMBL document CHEMBL3885881, “DrugMatrix”.

Species: Rattus norvegicus
Format: toxicity, organism-based, Sprague-Dawley
Conditions: in vivo, po, 24 h, route oral GAVAGE, time 1 day, vehicle .5 % CMC; for ABSOLUTE EOSINOPHIL / ABSOLUTE LYMPHOCYTE / ABSOLUTE MONOCYTE / ABSOLUTE SEGMENTED NEUTROPHIL / BASOPHIL / EOSINOPHIL / ERYTHROCYTE COUNT / HEMATOCRIT / HEMOGLOBIN / LEUKOCYTE COUNT / LYMPHOCYTE / MEAN CORPUSCULAR HEMOGLOBIN / MEAN CORPUSCULAR HEMOGLOBIN CONCENTRATION / MEAN CORPUSCULAR VOLUME / MONOCYTE / NEUTROPHIL / NUCLEATED RED BLOOD CELLS / PLATELET COUNT: tissue Blood; for ALANINE AMINOTRANSFERASE / ALBUMIN / ALKALINE PHOSPHATASE / ASPARTATE AMINOTRANSFERASE / BLOOD UREA NITROGEN / CARBON DIOXIDE / CHLORIDE / CHOLESTEROL / CREATININE / GLUCOSE / LACTATE DEHYDROGENASE / LIPASE / PHOSPHORUS / POTASSIUM / SODIUM / TOTAL BILIRUBIN / TOTAL PROTEIN / URIC ACID: tissue Plasma
[1] = 0 mg/kg, vehicle control, dose level Control

Description: DrugMatrix - Regimen: Single

Compound: ClC(Cl)Br [BROMODICHLOROMETHANE]
- ABSOLUTE EOSINOPHIL [1]: 150 CELLS/uL
- ABSOLUTE LYMPHOCYTE [1]: 13279.83 CELLS/uL
- ABSOLUTE MONOCYTE [1]: 654.5 CELLS/uL
- ABSOLUTE SEGMENTED NEUTROPHIL [1]: 1565.67 CELLS/uL
- BASOPHIL [1]: 0%
- EOSINOPHIL [1]: 1%
- ERYTHROCYTE COUNT [1]: 5.36 x10E6/uL
- HEMATOCRIT [1]: 33.37%
- HEMOGLOBIN [1]: 12.52 G/DL
- LEUKOCYTE COUNT [1]: 15.65 x10E3/uL
- LYMPHOCYTE [1]: 84.83%
- MEAN CORPUSCULAR HEMOGLOBIN [1]: 23.4 pg
- MEAN CORPUSCULAR HEMOGLOBIN CONCENTRATION [1]: 37.52 G/DL
- MEAN CORPUSCULAR VOLUME [1]: 62.32 fL
- MONOCYTE [1]: 4.17%
- NEUTROPHIL [1]: 10%
- NUCLEATED RED BLOOD CELLS [1]: 0 /100WBC
- PLATELET COUNT [1]: 1020 x10E3/uL
- ALANINE AMINOTRANSFERASE [1]: 49 u/L
- ALBUMIN [1]: 4.47 G/DL
- ALKALINE PHOSPHATASE [1]: 361.17 u/L
- ASPARTATE AMINOTRANSFERASE [1]: 78.67 u/L
- BLOOD UREA NITROGEN [1]: 13.17 mg/dL
- CARBON DIOXIDE [1]: 29.67 mmol/L
- CHLORIDE [1]: 100.83 MEQ/L
- CHOLESTEROL [1]: 82.17 mg/dL
- CREATININE [1]: 0.15 mg/dL
- GLUCOSE [1]: 150.83 mg/dL
- LACTATE DEHYDROGENASE [1]: 239.17 u/L
- LIPASE [1]: 7.83 u/L
- PHOSPHORUS [1]: 13.82 mg/dL
- POTASSIUM [1]: 6.62 MEQ/L
- SODIUM [1]: 144.25 MEQ/L
- TOTAL BILIRUBIN [1]: 0.15 mg/dL
- TOTAL PROTEIN [1]: 6.2 G/DL
- URIC ACID [1]: 1.57 mg/dL
- ABSOLUTE EOSINOPHIL (430 mg/kg, dose level High): 41.33 CELLS/uL
- ABSOLUTE LYMPHOCYTE (430 mg/kg, dose level High): 10502.67 CELLS/uL
- ABSOLUTE MONOCYTE (430 mg/kg, dose level High): 677 CELLS/uL
- ABSOLUTE SEGMENTED NEUTROPHIL (430 mg/kg, dose level High): 1645.67 CELLS/uL
- BASOPHIL (430 mg/kg, dose level High): 0%
- EOSINOPHIL (430 mg/kg, dose level High): 0.33%
- ERYTHROCYTE COUNT (430 mg/kg, dose level High): 6.1 x10E6/uL
- HEMATOCRIT (430 mg/kg, dose level High): 36.03%
- HEMOGLOBIN (430 mg/kg, dose level High): 13.4 G/DL
- LEUKOCYTE COUNT (430 mg/kg, dose level High): 12.87 x10E3/uL
- LYMPHOCYTE (430 mg/kg, dose level High): 81.67%
- MEAN CORPUSCULAR HEMOGLOBIN (430 mg/kg, dose level High): 21.97 pg
- MEAN CORPUSCULAR HEMOGLOBIN CONCENTRATION (430 mg/kg, dose level High): 37.2 G/DL
- MEAN CORPUSCULAR VOLUME (430 mg/kg, dose level High): 59.07 fL
- MONOCYTE (430 mg/kg, dose level High): 5.33%
- NEUTROPHIL (430 mg/kg, dose level High): 12.67%
- NUCLEATED RED BLOOD CELLS (430 mg/kg, dose level High): 0 /100WBC
- PLATELET COUNT (430 mg/kg, dose level High): 1251 x10E3/uL
- ALANINE AMINOTRANSFERASE (430 mg/kg, dose level High): 62 u/L
- ALBUMIN (430 mg/kg, dose level High): 4.77 G/DL
- ALKALINE PHOSPHATASE (430 mg/kg, dose level High): 394.67 u/L
- ASPARTATE AMINOTRANSFERASE (430 mg/kg, dose level High): 108 u/L
- BLOOD UREA NITROGEN (430 mg/kg, dose level High): 16.33 mg/dL
- CARBON DIOXIDE (430 mg/kg, dose level High): 25 mmol/L
- CHLORIDE (430 mg/kg, dose level High): 103 MEQ/L
- CHOLESTEROL (430 mg/kg, dose level High): 68 mg/dL
- CREATININE (430 mg/kg, dose level High): 0.18 mg/dL
- GLUCOSE (430 mg/kg, dose level High): 128.67 mg/dL
- LACTATE DEHYDROGENASE (430 mg/kg, dose level High): 323 u/L
- LIPASE (430 mg/kg, dose level High): 10 u/L
- PHOSPHORUS (430 mg/kg, dose level High): 11.43 mg/dL
- POTASSIUM (430 mg/kg, dose level High): 5.73 MEQ/L
- SODIUM (430 mg/kg, dose level High): 144.9 MEQ/L
- TOTAL BILIRUBIN (430 mg/kg, dose level High): 0.17 mg/dL
- TOTAL PROTEIN (430 mg/kg, dose level High): 6.5 G/DL
- URIC ACID (430 mg/kg, dose level High): 1.7 mg/dL
